# ± gives the expanded uncertainty stated by the source.
# Columns and labels:
# [1] = Liquid; for electrical conductivity: Alternating current cell with electrodes; for viscosity: Capillary tube (Ostwald / Ubbelohde) method; for speed of sound: Linear variable-path acoustic interferometer; for mass density: Vibrating tube method
# [2] = refractive index (Na D-line) (dimensionless); details: 101.33 kPa, Liquid, Standard Abbe refractometry
smiles,measurement,setting,value
CC(=O)[O-].CCn1cc[n+](C)c1 [1-ethyl-3-methylimidazolium acetate],electrical conductivity,"[1]; 283.15 K, 101.33 kPa",0.114 ± 0.002 S/m
same,viscosity,"[1]; 283.15 K, 101.33 kPa",388.6 ± 20 mPa·s
same,speed of sound,"[1]; 283.15 K, 101.33 kPa",1778 ± 3 m/s
same,mass density,"[1]; 283.15 K, 101.33 kPa",1107.56 ± 0.47 kg/m3
same,electrical conductivity,"[1]; 288.15 K, 101.33 kPa",0.162 ± 0.003 S/m
same,viscosity,"[1]; 288.15 K, 101.33 kPa",258.4 ± 12 mPa·s
same,speed of sound,"[1]; 288.15 K, 101.33 kPa",1764 ± 3 m/s
same,mass density,"[1]; 288.15 K, 101.33 kPa",1104.47 ± 0.47 kg/m3
same,electrical conductivity,"[1]; 293.15 K, 101.33 kPa",0.222 ± 0.004 S/m
same,viscosity,"[1]; 293.15 K, 101.33 kPa",179.1 ± 8.1 mPa·s
same,speed of sound,"[1]; 293.15 K, 101.33 kPa",1750 ± 3 m/s
same,mass density,"[1]; 293.15 K, 101.33 kPa",1101.36 ± 0.47 kg/m3
same,electrical conductivity,"[1]; 298.15 K, 101.33 kPa",0.296 ± 0.006 S/m
same,viscosity,"[1]; 298.15 K, 101.33 kPa",128.5 ± 5.5 mPa·s
same,speed of sound,"[1]; 298.15 K, 101.33 kPa",1737 ± 3 m/s
same,mass density,"[1]; 298.15 K, 101.33 kPa",1098.26 ± 0.47 kg/m3
same,electrical conductivity,"[1]; 303.15 K, 101.33 kPa",0.382 ± 0.008 S/m
same,viscosity,"[1]; 303.15 K, 101.33 kPa",95.23 ± 4 mPa·s
same,speed of sound,"[1]; 303.15 K, 101.33 kPa",1725 ± 3 m/s
same,mass density,"[1]; 303.15 K, 101.33 kPa",1095.16 ± 0.47 kg/m3
same,electrical conductivity,"[1]; 308.15 K, 101.33 kPa",0.48 ± 0.01 S/m
same,viscosity,"[1]; 308.15 K, 101.33 kPa",72.42 ± 2.9 mPa·s
same,speed of sound,"[1]; 308.15 K, 101.33 kPa",1712 ± 3 m/s
same,mass density,"[1]; 308.15 K, 101.33 kPa",1092.07 ± 0.46 kg/m3
same,electrical conductivity,"[1]; 313.15 K, 101.33 kPa",0.594 ± 0.012 S/m
same,viscosity,"[1]; 313.15 K, 101.33 kPa",56.38 ± 2.3 mPa·s
same,speed of sound,"[1]; 313.15 K, 101.33 kPa",1700 ± 3 m/s
same,mass density,"[1]; 313.15 K, 101.33 kPa",1089 ± 0.46 kg/m3
same,electrical conductivity,"[1]; 318.15 K, 101.33 kPa",0.827 ± 0.017 S/m
same,viscosity,"[1]; 318.15 K, 101.33 kPa",44.79 ± 1.8 mPa·s
same,speed of sound,"[1]; 318.15 K, 101.33 kPa",1687 ± 3 m/s
same,mass density,"[1]; 318.15 K, 101.33 kPa",1085.94 ± 0.46 kg/m3
same,electrical conductivity,"[1]; 323.15 K, 101.33 kPa",0.986 ± 0.02 S/m
same,viscosity,"[1]; 323.15 K, 101.33 kPa",36.23 ± 1.5 mPa·s
same,speed of sound,"[1]; 323.15 K, 101.33 kPa",1675 ± 3 m/s
same,mass density,"[1]; 323.15 K, 101.33 kPa",1082.9 ± 0.46 kg/m3
same,viscosity,"[1]; 328.15 K, 101.33 kPa",29.78 ± 1.2 mPa·s
same,speed of sound,"[1]; 328.15 K, 101.33 kPa",1664 ± 3 m/s
same,mass density,"[1]; 328.15 K, 101.33 kPa",1079.87 ± 0.46 kg/m3
same,viscosity,"[1]; 333.15 K, 101.33 kPa",24.82 ± 1 mPa·s
same,speed of sound,"[1]; 333.15 K, 101.33 kPa",1652 ± 3 m/s
same,mass density,"[1]; 333.15 K, 101.33 kPa",1076.84 ± 0.46 kg/m3
same,viscosity,"[1]; 338.15 K, 101.33 kPa",20.95 ± 0.85 mPa·s
same,speed of sound,"[1]; 338.15 K, 101.33 kPa",1640 ± 3 m/s
same,mass density,"[1]; 338.15 K, 101.33 kPa",1073.83 ± 0.46 kg/m3
same,viscosity,"[1]; 343.15 K, 101.33 kPa",17.88 ± 0.72 mPa·s
same,speed of sound,"[1]; 343.15 K, 101.33 kPa",1628 ± 3 m/s
same,mass density,"[1]; 343.15 K, 101.33 kPa",1070.83 ± 0.46 kg/m3
same,refractive index,[2]; 283.15 K,1.50423 ± 0.00036
same,refractive index,[2]; 288.15 K,1.50283 ± 0.00036
same,refractive index,[2]; 293.15 K,1.50144 ± 0.00036
same,refractive index,[2]; 298.15 K,1.50001 ± 0.00036
same,refractive index,[2]; 303.15 K,1.49861 ± 0.00036
same,refractive index,[2]; 308.15 K,1.49718 ± 0.00036
same,refractive index,[2]; 313.15 K,1.49577 ± 0.00036
same,refractive index,[2]; 318.15 K,1.49436 ± 0.00036
same,refractive index,[2]; 323.15 K,1.49295 ± 0.00036
same,refractive index,[2]; 328.15 K,1.49154 ± 0.00036
same,refractive index,[2]; 333.15 K,1.49015 ± 0.00036
same,refractive index,[2]; 338.15 K,1.48876 ± 0.00036
same,refractive index,[2]; 343.15 K,1.48734 ± 0.00036
"O=c1cc[nH]c(=O)[nH]1 [2,4(1H,3H)-pyrimidinedione]",electrical conductivity,"[1]; 298.15 K, 101 kPa",0.296 ± 0.006 S/m
same,viscosity,"[1]; 298.15 K, 101 kPa",128.5 ± 5.5 mPa·s
same,mass density,"[1]; 298.15 K, 101 kPa",1097.6 ± 0.3 kg/m3
same,electrical conductivity,"[1]; 303.15 K, 101 kPa",0.382 ± 0.008 S/m
same,viscosity,"[1]; 303.15 K, 101 kPa",95.23 ± 4 mPa·s
same,mass density,"[1]; 303.15 K, 101 kPa",1094.5 ± 0.3 kg/m3
same,electrical conductivity,"[1]; 308.15 K, 101 kPa",0.48 ± 0.01 S/m
same,viscosity,"[1]; 308.15 K, 101 kPa",72.42 ± 2.9 mPa·s
same,mass density,"[1]; 308.15 K, 101 kPa",1091.4 ± 0.3 kg/m3
same,electrical conductivity,"[1]; 313.15 K, 101 kPa",0.594 ± 0.012 S/m
same,viscosity,"[1]; 313.15 K, 101 kPa",56.38 ± 2.3 mPa·s
same,mass density,"[1]; 313.15 K, 101 kPa",1088.4 ± 0.3 kg/m3
same,electrical conductivity,"[1]; 318.15 K, 101 kPa",0.827 ± 0.017 S/m
same,viscosity,"[1]; 318.15 K, 101 kPa",44.79 ± 1.8 mPa·s
same,mass density,"[1]; 318.15 K, 101 kPa",1085.3 ± 0.3 kg/m3
same,electrical conductivity,"[1]; 323.15 K, 101 kPa",0.986 ± 0.02 S/m
same,viscosity,"[1]; 323.15 K, 101 kPa",36.23 ± 1.5 mPa·s
same,mass density,"[1]; 323.15 K, 101 kPa",1082.3 ± 0.3 kg/m3
same,viscosity,"[1]; 328.15 K, 101 kPa",29.78 ± 1.2 mPa·s
same,mass density,"[1]; 328.15 K, 101 kPa",1079.3 ± 0.3 kg/m3
same,viscosity,"[1]; 333.15 K, 101 kPa",24.82 ± 1 mPa·s
same,mass density,"[1]; 333.15 K, 101 kPa",1076.2 ± 0.3 kg/m3
same,viscosity,"[1]; 338.15 K, 101 kPa",20.95 ± 0.85 mPa·s
same,mass density,"[1]; 338.15 K, 101 kPa",1073.3 ± 0.3 kg/m3
same,viscosity,"[1]; 343.15 K, 101 kPa",17.88 ± 0.72 mPa·s
same,mass density,"[1]; 343.15 K, 101 kPa",1070.3 ± 0.3 kg/m3
Nc1[nH]cnc2ncnc1-2 [6-amino-1H-purine],electrical conductivity,"[1]; 298.15 K, 101 kPa",0.296 ± 0.006 S/m
same,viscosity,"[1]; 298.15 K, 101 kPa",128.5 ± 5.5 mPa·s
same,mass density,"[1]; 298.15 K, 101 kPa",1097.6 ± 0.3 kg/m3
same,electrical conductivity,"[1]; 303.15 K, 101 kPa",0.382 ± 0.008 S/m
same,viscosity,"[1]; 303.15 K, 101 kPa",95.23 ± 4 mPa·s
same,mass density,"[1]; 303.15 K, 101 kPa",1094.5 ± 0.3 kg/m3
same,electrical conductivity,"[1]; 308.15 K, 101 kPa",0.48 ± 0.01 S/m
same,viscosity,"[1]; 308.15 K, 101 kPa",72.42 ± 2.9 mPa·s
same,mass density,"[1]; 308.15 K, 101 kPa",1091.4 ± 0.3 kg/m3
same,electrical conductivity,"[1]; 313.15 K, 101 kPa",0.594 ± 0.012 S/m
same,viscosity,"[1]; 313.15 K, 101 kPa",56.38 ± 2.3 mPa·s
same,mass density,"[1]; 313.15 K, 101 kPa",1088.4 ± 0.3 kg/m3
same,electrical conductivity,"[1]; 318.15 K, 101 kPa",0.827 ± 0.017 S/m
same,viscosity,"[1]; 318.15 K, 101 kPa",44.79 ± 1.8 mPa·s
same,mass density,"[1]; 318.15 K, 101 kPa",1085.3 ± 0.3 kg/m3
same,electrical conductivity,"[1]; 323.15 K, 101 kPa",0.986 ± 0.02 S/m
same,viscosity,"[1]; 323.15 K, 101 kPa",36.23 ± 1.5 mPa·s
same,mass density,"[1]; 323.15 K, 101 kPa",1082.3 ± 0.3 kg/m3
same,viscosity,"[1]; 328.15 K, 101 kPa",29.78 ± 1.2 mPa·s
same,mass density,"[1]; 328.15 K, 101 kPa",1079.3 ± 0.3 kg/m3
same,viscosity,"[1]; 333.15 K, 101 kPa",24.82 ± 1 mPa·s
same,mass density,"[1]; 333.15 K, 101 kPa",1076.2 ± 0.3 kg/m3
same,viscosity,"[1]; 338.15 K, 101 kPa",20.95 ± 0.85 mPa·s
same,mass density,"[1]; 338.15 K, 101 kPa",1073.3 ± 0.3 kg/m3
same,viscosity,"[1]; 343.15 K, 101 kPa",17.88 ± 0.72 mPa·s
same,mass density,"[1]; 343.15 K, 101 kPa",1070.3 ± 0.3 kg/m3

# Reference: the NIST ThermoML archive (doi:10.1016/j.jct.2012.07.022)
